Laboratory results taken from US20230330021A1, “DRUG-LOADED POLYMER VESICLE HAVING ASYMMETRIC MEMBRANE STRUCTURE, PREPARATION METHOD THEREFOR, AND APPLICATION THEREOF IN PREPARATION OF DRUGS FOR TREATING ACUTE MYELOID LEUKEMIA” (SOOCHOW UNIVERSITY, priority 2020, published 2023).
Counter-ions that a name gives are not always drawn.

Assays:
[1] = test system: orthotopic MV4-11-GFP-Luc-bearing mice; experiment: Antitumor effect of A6-cPS-DNR in orthotopic AML model; assay type: in vivo; settings: DNR 2 mg/kg
Protocol: (§1) Construction of an in situ MV4-11-GFP-Luc acute myeloid leukemia mouse model: All animal experiments and operations were approved by the Experimental Animal Center of Soochow University and the Animal Care and Use Committee of Soochow University. […] Mice were first irradiated with X-rays (2.0 Gy), then the antibody CD122 (10 mg/kg mouse) was injected intraperitoneally, and 6 hours later, MV4-11-GFP-Luc cells (1×10^5 cells/mouse) injected into mice by tail vein. After inoculation, the proliferation and proliferation of leukemia cells in mice were observed by in vivo imaging of small animals (FIG. 12).
Antitumor effect of A6-cPS-DNR in orthotopic MV4-11-GFP-Luc-bearing mice: To study the antitumor effect of A6-cPS-DNR on orthotopic MV4-11-GFP-Luc-bearing mice Tumor effect (refer to Example 11 for the design scheme). The DNR dose was 2 mg/kg, and A6-cPS-DNR was increased by 3 mg/kg in a high-dose group. The blank control group was injected with 100 µL PBS. There were 3 tumor-bearing mice in each group.

[2] = test system: orthotopic MV4-11-GFP-Luc-bearing mice; experiment: Antitumor effect of A6-cPS-VCR in orthotopic AML model; assay type: in vivo
Protocol: as §1
Antitumor effect of A6-cPS-VCR in orthotopic MV4-11-GFP-Luc-bearing mice: To study the antitumor effect of A6-cPS-VCR on orthotopic MV4-11-GFP-Luc bearing mice Tumor effect, the following treatment plan was designed (FIG. 14): the first injection was injected on the 6th day after the inoculation, which was counted as the 0th day, and the second injection was given on the 2nd day. The dose of VCR was 0.50 mg/kg, and the control group was injected with 100 µL PBS. There were 10 tumor-bearing mice in each group. […] Mice lose weight before dying. […] And cPS-VCR (11 days), prolonged 1.5-2.7 times.
In order to further accurately and quantitatively analyze the proliferation of leukemia cells in mice, on the 4th day, 3 mice in each group were randomly selected for dissection, and the leukocytes in the liver, spleen and bone marrow were extracted, and the content of leukemia cells was detected by flow cytometry. And the liver, spleen and bone marrow slices were analyzed to observe the damage.
Acute myeloid leukemia cells abnormally proliferate in the bone marrow of mice, resulting in osteolytic lesions in mice. Therefore, micro-CT was used to evaluate the relevant indexes of the femur of each group of mice.

MV4-11 cells [3] = experiment: Cell cycle, PI flow cytometry; assay type: cell-based; settings: VCR 10 ng/mL
Protocol: The cell culture and treatment of the cell cycle experiment of A6-cPS-VCR refer to the above method, and only add 1 mL of PBS to resuspend the cells at the end. Then, 4 mL of ice 95% ethanol was added to fix the cells for 12 hours, and 400 µL of PI staining solution was added for 30 minutes in the dark on a shaker at 37° C. Finally, the cells were tested by flow cytometry.

MV4-11 cells [4] = experiment: Apoptosis, AnnexinV/PI flow cytometry; assay type: cell-based; settings: VCR 10 ng/mL
Protocol: A6-cPS-VCR-targeted polymer vesicle nanomedicine induces apoptosis and cell cycle: First, MV4-11 cells were plated in a 24-well plate at a density of 2 × 10^5 cells/well and cultured for 24 hours. 20 µL of A6-cPS-VCR, cPS-VCR or VCR (concentration of VCR was 10 ng/mL) was added, respectively, and 20 µL of PBS was added to the control group. After 4 hours of incubation, the supernatant was removed by centrifugation (3000 rpm, 10 minutes), then fresh RPMI-1640 complete medium was added, the cells were blown off and placed in the incubator for a further 44 hours. Cells were collected in a flow tube, centrifuged (800 rpm, 5 min) and washed twice with 4° C. cold PBS. Finally, 200 µL of binding buffer was added to resuspend the cells. After pipetting evenly, taken 100 µL of it into the flow tube, added 5 µL of AnnexinV-F647 and 10 µL of PI solution in sequence, and stain at room temperature for 15 minutes in the dark, then add 400 µL of PBS and mix evenly to stop the staining, and detection by a flow cytometer within 1 hour. Among them, the cells that were treated in a 50° C. water bath for 5 minutes and fixed with 4% paraformaldehyde for 5 minutes were added with 5 µL of AnnexinV-F647 solution and 10 µL of PI solution for staining for 15 minutes respectively. Cytometer for testing.

YNH-1 = experiment: Cell proliferation inhibition assay (CCK8 method); assay type: cell-based; settings: CD44-negative YNH-1
OCI-AML-3 = experiment: Cell proliferation inhibition assay (CCK8 method); assay type: cell-based; settings: CD44-negative OCI-AML-3

SMILES: COc1cccc2c1C(=O)c1c(O)c3c(c(O)c1C2=O)C[C@@](O)(C(C)=O)C[C@@H]3O[C@H]1C[C@H](N)[C@H](O)[C@H](C)O1 [DNR, daunorubicin]
- fluorescence quantification, bioluminescence imaging [1]: decreased slightly

SMILES: CC[C@]1(O)C[C@H]2CN(CCc3c([nH]c4ccccc34)[C@@](C(=O)OC)(c3cc4c(cc3OC)N(C=O)[C@H]3[C@@](O)(C(=O)OC)[C@H](OC(C)=O)[C@]5(CC)C=CCN6CC[C@]43[C@@H]65)C2)C1 [VCR, vincristine sulfate]
- leukemia levels in the liver, spleen and bone marrow, flow cytometry ([2]; 4th day, 3 mice per group): reduced
- median survival time ([2]; VCR 0.50 mg/kg): 9 days
- proliferation of MV4-11-GFP-Luc cells, bioluminescence imaging ([2]; VCR 0.50 mg/kg, injections day 0 and day 2): proliferated slowly during drug administration, but proliferated rapidly after drug withdrawal
- effect on cell cycle (MV4-11 cells [3]): arresting cells in G2/M phase
- apoptosis (MV4-11 cells [4]): 16.7%
- proliferation inhibition (YNH-1): no significant difference
- proliferation inhibition (OCI-AML-3): no significant difference
